In PubChem BioAssay AID220 (DTP/NCI, 2004):
“And” between values parts separate entries of the source, which are not always exact repeats. Equal values may be shown once. Inconclusive results are not listed.

System: CD8F1 mice, subcutaneous mammary adenocarcinoma, T/C%
Assay: NCI In Vivo Anticancer Drug Screen. Data for tumor model Mammary Adenocarcinoma CD8F1 (subcutaneous) in CD8F1
Settings: higher = larger tumour
In short: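 Transplantable tumors were established in mice, animals were dosed with compound or vehicle, and survival or tumor size was then measured in both groups. The treated result was divided by the control result.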

[1] = endpoint: median tumor weight (est.), dose: 10.0 mg/kg/injection, schedule: Q07DX005 (ip), vehicle: saline with Tween-80
[2] = endpoint: median tumor weight (est.), dose: 25.0 mg/kg/injection, schedule: Q07DX005 (ip), vehicle: saline with Tween-80

## O=C/C(Cl)=C(/Cl)C(=O)O
endpoint: median tumor weight (est.), dose: 2.5 mg/kg/injection, schedule: Q07DX005 (ip), vehicle: saline with Tween-80
  T/C: 190 % of control
endpoint: median tumor weight (est.), dose: 5.0 mg/kg/injection, schedule: Q07DX005 (ip), vehicle: saline with Tween-80
  T/C: 121 % of control
[1]
  T/C: 245 % of control

## C[n+]1c(-c2cccc(OCCOCCOc3cccc(-c4c5cc(N)ccc5c5ccc(N)cc5[n+]4C)c3)c2)c2cc(N)ccc2c2ccc(N)cc21
endpoint: median tumor weight change, dose: 5.0 mg/kg/injection, schedule: Q01DX001 (ip), vehicle: water
  T/C: 63 % of control
endpoint: median tumor weight change, dose: 10.0 mg/kg/injection, schedule: Q01DX001 (ip), vehicle: water
  T/C: 72 % of control
endpoint: median tumor weight change, dose: 40.0 mg/kg/injection, schedule: Q01DX001 (ip), vehicle: water
  T/C: 60 % of control

## O=C1CN(CN2CCOCC2)C(=O)CN1CN1CCOCC1
endpoint: median tumor weight (est.), dose: 12.5 mg/kg/injection, schedule: Q07DX005 (ip), vehicle: saline
  T/C: 170 % of control
endpoint: median tumor weight (est.), dose: 50.0 mg/kg/injection, schedule: Q07DX005 (ip), vehicle: saline
  T/C: 153 % of control
endpoint: median tumor weight (est.), dose: 200.0 mg/kg/injection, schedule: Q07DX005 (ip), vehicle: saline
  T/C: 100 % of control

## COc1cc2cc3c4cc(OC)c(OC)cc4cc[n+]3c(C)c2cc1OC (tested in a mixture with another compound)
endpoint: median tumor weight (est.), dose: 100.0 mg/kg/injection, schedule: Q07DX005 (ip), vehicle: suspension in saline
  T/C: 97 % of control

## COc1nc(C(Cl)(Cl)Cl)c(Cl)c(OC)c1Cl
endpoint: median tumor weight change, dose: 60.0 mg/kg/injection, schedule: Q01DX005 (ip), vehicle: Klucel (hydroxypropylcellulose) (HPC)
  T/C: 32 % of control
endpoint: median tumor weight change, dose: 62.5 mg/kg/injection, schedule: Q01DX001 (ip), vehicle: Klucel (hydroxypropylcellulose) (HPC)
  T/C: 174 % of control
endpoint: median tumor weight change, dose: 125.0 mg/kg/injection, schedule: Q01DX001 (ip), vehicle: Klucel (hydroxypropylcellulose) (HPC)
  T/C: 81 % of control and 95 % of control
endpoint: median tumor weight change, dose: 200.0 mg/kg/injection, schedule: Q01DX005 (ip), vehicle: Klucel (hydroxypropylcellulose) (HPC)
  T/C: -15 % of control

## Nc1nc(=S)c2ncn(C3CC(O)C(CO)O3)c2[nH]1 (stereo not given)
[1]
  T/C: 17 % of control and 37 % of control
endpoint: median tumor weight (est.), dose: 12.5 mg/kg/injection, schedule: Q07DX005 (ip), vehicle: suspension in saline
  T/C: 81 % of control
endpoint: median tumor weight (est.), dose: 20.0 mg/kg/injection, schedule: Q07DX005 (ip), vehicle: saline with Tween-80
  T/C: 9 % of control and 21 % of control
endpoint: median tumor weight (est.), dose: 25.0 mg/kg/injection, schedule: Q07DX005 (ip), vehicle: suspension in saline
  T/C: 101 % of control
endpoint: median tumor weight (est.), dose: 40.0 mg/kg/injection, schedule: Q07DX005 (ip), vehicle: saline with Tween-80
  T/C: 6 % of control and 7 % of control
endpoint: median tumor weight (est.), dose: 50.0 mg/kg/injection, schedule: Q07DX005 (ip), vehicle: suspension in saline
  T/C: 72 % of control
endpoint: median tumor weight (est.), dose: 80.0 mg/kg/injection, schedule: Q07DX005 (ip), vehicle: saline with Tween-80
  T/C: 2 % of control and 5 % of control
endpoint: median tumor weight (est.), dose: 200.0 mg/kg/injection, schedule: Q07DX005 (ip), vehicle: suspension in saline
  T/C: 62 % of control

## CC(=O)OCC1(C)NC(=O)c2ccccc2O1 (stereo not given)
endpoint: median tumor weight (est.), dose: 12.5 mg/kg/injection, schedule: Q07DX005 (ip), vehicle: saline with Tween-80
  T/C: 18 % of control
[2]
  T/C: 40 % of control
endpoint: median tumor weight (est.), dose: 50.0 mg/kg/injection, schedule: Q07DX005 (ip), vehicle: saline with Tween-80
  T/C: 18 % of control
endpoint: median tumor weight (est.), dose: 100.0 mg/kg/injection, schedule: Q07DX005 (ip), vehicle: saline with Tween-80
  T/C: 37 % of control
endpoint: median tumor weight (est.), dose: 200.0 mg/kg/injection, schedule: Q07DX005 (ip), vehicle: saline with Tween-80
  T/C: 34 % of control
endpoint: median tumor weight (est.), dose: 400.0 mg/kg/injection, schedule: Q07DX005 (ip), vehicle: saline with Tween-80
  T/C: 24 % of control

## O=C(Nc1nncs1)c1ccncc1
[2]
  T/C: 151 % of control
endpoint: median tumor weight (est.), dose: 800.0 mg/kg/injection, schedule: Q07DX005 (ip), vehicle: saline with Tween-80
  T/C: 69 % of control
